The source of these data is publication doi:10.1101/430959v1, “The chemistry and pharmacology of putative synthetic cannabinoid receptor agonist (SCRA) new psychoactive substances (NPS) 5F-PY-PICA, 5F-PY-PINACA, and their analogues” (biorxiv, 2018).

Structures are written as SMILES. Read-outs that look alike come from different tables or passages of the source. Where only a bound is given, the exact number is not on record here.

Assay [1] deals with T1, HA-hCB1 (Homo sapiens, UniProt P21554).
T1 construct: gene CNR1
T1 sequence (P21554 whole entry): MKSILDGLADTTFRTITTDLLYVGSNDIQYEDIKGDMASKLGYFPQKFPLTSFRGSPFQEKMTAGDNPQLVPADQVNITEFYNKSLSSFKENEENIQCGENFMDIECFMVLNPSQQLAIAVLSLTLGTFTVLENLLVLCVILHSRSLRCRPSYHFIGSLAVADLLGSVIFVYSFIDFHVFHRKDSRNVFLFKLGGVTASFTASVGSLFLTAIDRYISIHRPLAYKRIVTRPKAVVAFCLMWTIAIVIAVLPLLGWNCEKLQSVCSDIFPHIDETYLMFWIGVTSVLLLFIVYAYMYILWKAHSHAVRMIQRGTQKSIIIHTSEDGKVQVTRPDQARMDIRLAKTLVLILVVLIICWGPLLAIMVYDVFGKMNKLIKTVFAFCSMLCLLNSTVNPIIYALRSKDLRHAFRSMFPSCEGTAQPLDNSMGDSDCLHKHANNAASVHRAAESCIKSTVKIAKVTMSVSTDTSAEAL
The experiment in a line: [3H]SR141716A competition, membranes. Type of assay: binding.

The target in assay [2] is T2, HA-hCB2 (Homo sapiens, UniProt P34972).
T2 construct: gene CNR2
T2 sequence (P34972 whole entry): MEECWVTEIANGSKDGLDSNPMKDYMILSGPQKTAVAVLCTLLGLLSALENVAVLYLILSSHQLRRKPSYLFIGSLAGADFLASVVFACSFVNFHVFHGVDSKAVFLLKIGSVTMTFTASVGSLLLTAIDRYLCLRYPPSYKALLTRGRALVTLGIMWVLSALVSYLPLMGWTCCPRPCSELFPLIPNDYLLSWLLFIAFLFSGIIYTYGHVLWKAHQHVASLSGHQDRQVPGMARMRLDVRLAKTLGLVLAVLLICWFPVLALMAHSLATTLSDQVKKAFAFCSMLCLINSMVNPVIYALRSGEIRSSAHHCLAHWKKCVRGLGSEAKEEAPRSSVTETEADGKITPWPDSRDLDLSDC
As to the kind of experiment: [3H]CP55, […] competition, membranes. Type of assay: binding.

In assay [3] the target is T3, human CB2 (AtT20-CB2) (Homo sapiens, UniProt P34972).
T3 construct: gene CNR2; full-length, stably transfected in mouse AtT20 cells
T3 sequence (P34972 whole entry): as above
As to the kind of experiment: FLIPR membrane potential assay, AtT20 cells. Type of assay: cell-based. From the text:
FLIPR membrane potential assay, AtT20 cells on human CB2 (AtT20-CB2)

Assay [4] concerns the target T3, human CB2 (AtT20-CB2). As to the kind of experiment: cell-based. Conditions: for Emax: read-out: hCB2 Max (% CP 55,940); for EC50: read-out: hCB2 pEC50 (converted). Here is the method:
(§1) Mouse AtT20 neuroblastoma cells stably transfected with human CB1 or human CB2 have been previously described.[43] and were cultured in Dulbecco’s modified Eagle’s medium (DMEM) containing 10% fetal bovine serum (FBS), 100 U penicillin/streptomycin, and 80 μg/mL hygromycin (InvivoGen, San Diego, CA, USA). Cells were passaged at 80% confluency as required. Cells for assays were grown in 75 cm2 flasks and used at 90% confluence. The day before the assay cells were detached from the flask with trypsin/EDTA (Sigma) and resuspended in 10 mL of Leibovitz’s L-15 media supplemented with 1% FBS, 100 U penicillin/streptomycin and 15 mM glucose. The cells were plated in volume of 90 μL in black walled, clear bottomed 96-well microplates (Corning) which had been precoated with poly-L-lysine (Sigma, Australia). Cells were incubated overnight at 37 °C in ambient CO2. Membrane potential was measured using a FLIPR Membrane Potential Assay kit (blue) from Molecular Devices, as described previously.[46] The dye was reconstituted with assay buffer of composition (mM): NaCl 145, HEPES 22, Na2HPO4 0.338, NaHCO3 4.17, KH2PO4 0.441, MgSO4 0.407, MgCl2 0.493, CaCl2 1.26, glucose 5.56 (pH 7.4, osmolarity 315 ± 5). Prior to the assay, cells were loaded with 90 μL/well of the dye solution without removal of the L-15, giving an initial assay volume of 180 μL/well. Plates were then incubated at 37 °C at ambient CO2 for 45 min. Fluorescence was measured using a FlexStation 3 (Molecular Devices) microplate reader with cells excited at a wavelength of 530 nm and emission measured at 565 nm. Baseline readings were taken every 2 s for at least 2 min, at which time either drug or vehicle was added in a volume of 20 μL. The background fluorescence of cells without dye or dye without cells was negligible. Changes in fluorescence were expressed as a percentage of baseline fluorescence after subtraction of the changes produced by vehicle addition. The final concentration of DMSO was 0.1%. Data were analyzed with PRISM (GraphPad Software Inc., San Diego, CA), using four-parameter nonlinear regression to fit concentration-response curves. In all plates, a maximally effective concentration of CP 55,940 was added to allow for normalization between assays.

Assay [5] concerns the target T4, human CB1 (AtT20-CB1) (Homo sapiens, UniProt P21554).
T4 construct: gene CNR1; full-length, stably transfected in mouse AtT20 cells
The experiment in a line: cell-based. Conditions: read-out: % activation. Here is the method:
as §1

Assay [6] has as its target T2, HA-hCB2. As to the kind of experiment: biochemical. Conditions: read-out: hCB2 pKi (converted). Set-up: species or system HEK 293.

T4 sequence (P21554 whole entry): as the sequence (P21554 whole entry) above

For the compound `O=C(c1cn(CCCCCF)c2ccccc12)N1CCCC1` [compound 5, (1-(5-Fluoropentyl)-1H-indol-3-yl)(pyrrolidin-1-yl)methanone], the Ki in assay [1] is greater than 10 µM; in assay [2], 1.74 µM. Moreover, the EC50 in assay [3] stood at 0.338 µM. The Emax in assay [4] was determined as 50 ± 3%.
For `O=C(c1cn(CCCCCF)c2ccccc12)N1CCCCC1` [compound 7, (1-(5-Fluoropentyl)-1H-indol-3-yl)(piperidin-1-yl)methanone], the figures for the Ki in assay [1] (read-out: pKi (converted)) and in assay [2] (read-out: Ki) were greater than 10 µM and 0.363 µM, respectively. The EC50 in assay [3] (read-out: EC50) amounted to 0.0363 µM. Besides, in assay [4], the Emax amounted to 64 ± 3%.
Regarding `O=C(c1cn(CCCCCF)c2ccccc12)N1CCCCCC1` [compound 8, Azepan-1-yl(1-(5-fluoropentyl)-1H-indol-3-yl)methanone], the Ki in assay [1] (read-out: pKi (converted)) is greater than 10 µM; in assay [2] (read-out: Ki), 0.102 µM. The EC50 in assay [3] (read-out: EC50) was 0.029 µM. Moreover, the Emax in assay [4] stood at 72 ± 3%.
As for `CCN(CC)C(=O)c1cn(CCCCCF)c2ccccc12` [compound 9, 1-(5-Fluoropentyl)-N,N-diethyl-1H-indole-3-carboxamide], the Ki is greater than 10 µM in assay [1] (read-out: pKi (converted)) and 1.02 µM in assay [2] (read-out: Ki). Also, the EC50 in assay [3] (read-out: EC50) was 0.137 µM. Also, in assay [4], the Emax amounted to 53 ± 4%. In assay [5], the activity at 10 µM was 0%.
For the compound `CN(C)C(=O)c1cn(CCCCCF)c2ccccc12` [compound 10, 1-(5-Fluoropentyl)-N,N-dimethyl-1H-indole-3-carboxamide], the Ki in assay [1] (read-out: pKi (converted)) and in assay [2] (read-out: Ki) was greater than 10 µM in each case. The activity at 10 µM in assay [4] (read-out: % activation) was 11 ± 2%; in assay [5], 9 ± 4%.
Consider `CCCCn1cc(C(=O)N2CCCC2)c2ccccc21` [compound 11, (1-Butyl-1H-indol-3-yl)(pyrrolidin-1-yl)methanone], for which the Ki in assay [1] (read-out: pKi (converted)) and in assay [2] (read-out: Ki) was greater than 10 µM each time. Also, the Emax in assay [4] was determined as 63 ± 9%. Also, in assay [4], the EC50 was 0.468 µM. In addition, in assay [5], the activity at 10 µM is 16 ± 9%.
Regarding `CCCCCn1cc(C(=O)N2CCCC2)c2ccccc21` [compound 12, (1-Pentyl-1H-indol-3-yl)(pyrrolidin-1-yl)methanone], in assay [1] (read-out: pKi (converted)), the Ki is greater than 10 µM. Moreover, the Ki in assay [6] is 3.24 µM. For the same compound, in assay [4], the Emax was determined as 54 ± 7% and the EC50 was 0.234 µM. Besides, in assay [5], the activity at 10 µM turned out to be 1 ± 3%.
Consider `O=C(c1cn(Cc2ccc(F)cc2)c2ccccc12)N1CCCC1` [compound 13, (1-(4-Fluorobenzyl)-1H-indol-3-yl)(pyrrolidin-1-yl)methanone], for which the Ki in assay [1] (read-out: pKi (converted)) was greater than 10 µM; in assay [6] it was 3.55 µM. In addition, the Emax in assay [4] was determined as 38 ± 13%. Further, the EC50 in assay [4] was 0.363 µM. Also, in assay [5], the activity at 10 µM amounted to 12 ± 2%.
Regarding `O=C(c1cn(CC2CCCCC2)c2ccccc12)N1CCCC1` [compound 14, (1-(Cyclohexylmethyl)-1H-indol-3-yl)(pyrrolidin-1-yl)methanone], the Ki in assay [1] (read-out: pKi (converted)) is greater than 10 µM. In assay [6], the Ki is 1.07 µM. Also, in assay [4], the Emax came out at 38 ± 3% and the EC50 is 0.135 µM.
